Where two headings read alike, the source gives them in different places.
Columns and labels:
A375 (BRAF^V600E) = experiment: Proliferation, A375 cells; format: cell-based
[1] = tested on: tumor cells bearing activating B-RAF mutations; experiment: Growth of tumor cells bearing activating B-RAF mutations; format: cell-based; settings: FIG. 5
Source text: (§1) In one embodiment, the MEK inhibitor of the combination therapy is either GDC-0973 or GDC-0623. […] FIG. 5. […] FIG. 6.

[2] = tested on: KRAS-Mutant DLD-1 Colorectal Adenocarcinoma Tumor Xenografts; experiment: DLD-1 colorectal xenograft combination study (Example 7); format: in vivo, mice
Method: (§2) A combination study of MEHD7945A and cobimetinib was conducted in the KRAS-mutant colorectal xenograft models LS180 and DLD-1. Both of these models were selected because of their KRAS-mutant status and their EGFR and HER3 expression. Cobimetinib was administered as an aqueous solution orally at […] once daily for 21 days. MEHD7945A was administered IV once a week until Day 21 was reached. Tumor sizes and body weights were recorded twice weekly over the course of the study. Mice were promptly euthanized when tumor volume exceeded 2000 mm3 or if body weight loss was 20% of their starting weight.
(§3) To appropriately analyze the repeated measurement of tumor volumes from the same animals over time, a mixed-modeling approach was used (Pinheiro et al. 2009). This approach addressed both repeated measurements and modest drop-out rates due to non-treatment-related termination of animals before study end. This analysis was used to determine tumor growth inhibition as a percentage of vehicle (% TGI) or time to tumor progression (TTP).
(§4) After randomization, DLD-1 tumor bearing mice were given PO gavage doses of 0 (vehicle), 3, or 10 mg/kg cobimetinib (expressed as free-base equivalents) QD for 21 days. Mice received 25 mg/kg of MEHD7945A via IV bolus injection QW for a total of three injections. In groups that received both agents, cobimetinib was administered first and immediately followed by MEHD7945A.

DLD-1 cells = experiment: TGFα-stimulated DLD-1 cells, immunoblot of pAKT and pERK1/2; format: cell-based; settings: 10 μg/mL MEHD7945A, 0.025 μM cobimetinib or combination 1 hour before 5 nM TGFα 12 minutes
Source text: (§5) Inhibition of the RAS/RAF/MEK and the PI3K/AKT pathways were explored in vitro using MEHD7945A and cobimetinib or the combination of both agents in KRAS-mutant colorectal cell lines. Two KRAS mutant colorectal cell lines were selected to assess the potential upregulation of phosphorylated AKT (pAKT) by cobimetinib due to the inhibition of negative feedback loops. Upregulation of pAKT upon MEK inhibition has been described in several cell systems (Mirzoeva et al. 2009; Diep et al 2011; Turke et al. 2012). Moreover, we investigated if the addition of MEHD7945A to cobimetinib treatment could enhance pAKT and pERK1/2 inhibition. LS180 cells were pretreated with 10 μg/mL MEHD7945A, 0.05 μM cobimetinib, or the combination thereof for one hour before stimulation with 5 nM TGFα for twelve minutes. DLD-1 cells were pretreated with 10 μg/mL MEHD7945A, 0.025 μM cobimetinib, or the combination thereof for 1 hour before stimulation with 5 nM TGFα for 12 minutes. Cell lysates were immunoblotted to detect phosphorylation of EGFR (pEGFR1068), phosphorylation of AKT (pAKTS473), and phosphorylation of ERK1/2 (pERK1/2 T202/Y204), and total protein levels of EGFR, AKT, or ERK1/2. The results are shown in FIG. 9 (left panel=LS180 cells, right panel=DLD-1 cells) (EGFR=epidermal growth factor receptor; ERK=extracellular signal regulated kinase; p=phosphorylated; TGFα=transforming growth factor α) […]

LS180 cells = experiment: TGFα-stimulated LS180 cells, immunoblot of pAKT and pERK1/2; format: cell-based; settings: 10 μg/mL MEHD7945A, 0.05 μM cobimetinib or combination 1 hour before 5 nM TGFα 12 minutes
Source text: as §5

[3] = tested on: LS180 Colorectal Adenocarcinoma Tumor Xenografts; experiment: LS180 colorectal xenograft combination study (Example 7); format: in vivo, mice
Method: as §2, §3
After randomization, LS180 tumor bearing mice were given oral (PO) gavage doses of 0 (vehicle), 3, or 10 mg/kg cobimetinib (expressed as free-base equivalents) once a day (QD) for 21 days. Mice were given 25 mg/kg of MEHD7945A via intravenous (IV) bolus injection once per week (QW) for a total of three injections. In groups that received both agents, cobimetinib was administered first and immediately followed by MEHD7945A.

[4] = tested on: BxPC3 Ductal Pancreatic Xenograft Tumors; experiment: Pancreatic BxPC3 xenograft combination study (Example 8); format: in vivo, mice
Source text: as §3
as §4, with “randomization,” for “randomization, DLD-1 tumor bearing”, “(vehicle), 1,” for “(vehicle), 3,”, “or 5” for “or 10”, “Mice were given” for “Mice received”
Time to tumor progression (TTP) to twice (2×) initial tumor volume was monitored for each group following 21 days of dosing (see FIG. 13C). […] In FIG. 13 CI=confidence interval; CR=complete response (100% decrease in tumor volume); HB#8=histidine buffer; MCT=0.5% (w/v) methylcellulose, 0.2% (w/v) polysorbate 80; NA=not achieved; PR=partial response (50-99% decrease in tumor volume); TTP=time to tumor progression to twice (2×) or five times (5×) the initial tumor volume represents the group average in days.

HCT115 (KRAS^G13D) = experiment: Proliferation, HCT115 cells; format: cell-based
[5] = tested on: tumor cells bearing activating Ras mutations; experiment: Growth of tumor cells bearing activating Ras mutations; format: cell-based; settings: FIG. 6
Source text: as §1

EGFR [6] = molecular target: T1, EGFR (Homo sapiens, UniProt P00533); experiment: Betacellulin- and amphiregulin-induced EGFR phosphorylation; format: cell-based
EGFR [7] = molecular target: T1, EGFR; settings: cited from earlier work
pERK1/2 (Thr202/Tyr204) [8] = experiment: NRG-stimulated MCF-7 cells, immunoblot of pERK1/2; format: cell-based; settings: 0.5 nM NRG for 10 min
Method: (§6) The assays were performed as follows. […] FIG. 2A.

ERK1/2 and AKT pathways = settings: A431 and BxPC3 cells
HER3-ECD = HER3-ECD (Homo sapiens, UniProt P21860); settings: soluble competitor 0.02-20 μg/ml
FaDu cells = experiment: FaDu xenograft, head and neck squamous cell carcinoma model; format: in vivo; settings: FaDu tumors in CB17 SCID mice, 25 mg/kg intraperitoneally weekly, 2× loading dose, four treatments
Method: MEHD7945A, a commercially available anti-EGFR antibody, and an anti-HER3 antibody were tested in mice with established tumors derived from Fadu cells (ATCC HTB-43, Manassas, Va.) 5×10^6 FaDu cells were inoculated subcutaneously in CB17 SCID mice. Animals with similarly sized tumors were randomized into treatment cohorts (n=9/group) as follows: Vehicle (MEHD7945A formulation buffer), anti-EGFR antibody (25 mg/kg), anti-HER3 antibody (50 mg/kg), and MEHD7945A (25 mg/kg). Treatments were administered intraperitoneally, beginning with a 2× loading dose (50 or 100 mg/kg respectively) on the day of randomization and continuing weekly for a total of four treatments.

pHER3 (Tyr1289) = molecular target: T2, pHER3 (Tyr1289) (Homo sapiens, UniProt P21860); experiment: NRG-stimulated MCF-7 cells, immunoblot of pHER3; format: cell-based; settings: 0.5 nM NRG for 10 min
T2 construct: endogenous in cells; host or cells: MCF-7
Method: as §6

phosphorylated EGFR = molecular target: T3, phosphorylated EGFR (Homo sapiens, UniProt P00533); experiment: TGF-a-stimulated EGFR-NR6 cells, immunoblot of phosphorylated EGFR; format: cell-based; settings: 1 hr pretreatment, 5 nM TGF-a for 10 min
T3 construct: expressed in transfected cells; host or cells: EGFR-NR6
Method: The assays were performed as follows. […] Cell lysates were subjected to immunoblotting to detect, pERK1/2 (Thr202/Tyr204), total EGFR, and phosphorylated EGFR. Since EGFR-NR6 cells only express EGFR all potential phosphorylation sites of EGFR were detected using a pTyr antibody.

pAKT (Ser473) = experiment: NRG-stimulated MCF-7 cells, immunoblot of pAKT; format: cell-based; settings: 0.5 nM NRG for 10 min
Method: as §6

pERK1/2 (Thr202/Tyr204) [9] = settings: EGFR-NR6 cells, 1 hr pretreatment, 5 nM TGF-a for 10 min
Method: The assays were performed as follows. MCF-7 cells treated with indicated concentrations of MEHD7945A or anti-HER3 were stimulated with 0.5 nM NRG for 10 min. Cell lysates were immunoblotted to detect pHER3 (Tyr1289), pAKT (Ser473), pERK1/2 (Thr202/Tyr204), and total HER3. FIG. 2A. […] Cell lysates were subjected to immunoblotting to detect, pERK1/2 (Thr202/Tyr204), total EGFR, and phosphorylated EGFR. Since EGFR-NR6 cells only express EGFR all potential phosphorylation sites of EGFR were detected using a pTyr antibody.

[10] = cobimetinib 3 mg/kg PO QD 21 days
[11] = cobimetinib 10 mg/kg PO QD 21 days
[12] = MEHD7945A 25 mg/kg IV QW, three injections

O=C(c1ccc(F)c(F)c1Nc1ccc(I)cc1F)N1CC(O)([C@@H]2CCCCN2)C1 [GDC-0973, cobimetinib]
EC50 (A375 (BRAF^V600E)): 5 nM
inhibiting the growth of tumor cells bearing activating B-RAF mutations [1]: more activity
TGI [2, 10]: 39%
TGI [2, 11]: 62%
phosphorylation of AKT (pAKTS473) (DLD-1 cells): increased phosphorylation of AKT
phosphorylation of ERK1/2 (pERK1/2 T202/Y204) (DLD-1 cells): partial inhibition
phosphorylation of AKT (pAKTS473) (LS180 cells): increased phosphorylation of AKT
phosphorylation of ERK1/2 (pERK1/2 T202/Y204) (LS180 cells): partial inhibition
TGI [3, 10]: 28%
TGI [3, 11]: 63%
TTP 2× (time to tumor progression to twice initial tumor volume) ([4]; cobimetinib 1 mg/kg): 22 days
TGI ([4]; cobimetinib 1 mg/kg PO QD 21 days): 88%
TTP 2× (time to tumor progression to twice initial tumor volume) ([4]; cobimetinib 5 mg/kg): 33 days
TGI ([4]; cobimetinib 5 mg/kg PO QD 21 days): 109%
EC50 (HCT115 (KRAS^G13D)): 520 nM

O=C(NOCCO)c1ccc2cncn2c1Nc1ccc(I)cc1F [GDC-0623]
EC50 (A375 (BRAF^V600E)): 7 nM
inhibiting the growth of tumor cells bearing activating Ras mutations [5]: more activity
EC50 (HCT115 (KRAS^G13D)): 42 nM

B1: MEHD7945A: dual-action antibody which comprises two identical antigen binding domains, each of which specifically binds to both HER3 and EGFR (antibody, V domains shown)
VH: EVQLVESGGGLVQPGGSLRLSCAASGFTLSGDWIHWVRQAPGKGLEWVGEISAAGGYTDYADSVKGRFTISADTSKNTAYLQMNSLRAEDTAVYYCARESRVSFEAAMDYWGQGTLVTVSS
VL: DIQMTQSPSSLSASVGDRVTITCRASQNIATDVAWYQQKPGKAPKLLIYSASFLYSGVPSRFSGSGSGTDFTLTISSLQPEDFATYYCQQSEPEPYTFGQGTKVEIKR
betacellulin- and amphiregulin-induced EGFR phosphorylation (EGFR [6]): inhibited
Kd (EGFR [7]): ~1.9 nM
IC50, phosphorylation of ERK1/2 (pERK1/2 (Thr202/Tyr204) [8]): 1.13 mg/L
inhibition of ERK1/2 and AKT pathways (ERK1/2 and AKT pathways): as potently as the combination of anti-HER3 and cetuximab
binding to immobilized HER3-ECD with increasing amounts of EGFR-ECD (HER3-ECD): reduced in a dose-dependent manner
inhibition of tumor growth (FaDu cells): more effective in inhibiting tumor growth than either an anti-EGFR specific or an anti-HER3 specific antibody
IC50, phosphorylation of HER3 (pHER3 (Tyr1289)): 0.05 mg/L
IC50, phosphorylation of EGFR (phosphorylated EGFR): 0.03 mg/L
IC50, phosphorylation of AKT (pAKT (Ser473)): 0.19 mg/L
TGI [2, 12]: 62%
TGI [3, 12]: 44%
IC50, phosphorylation of ERK1/2 (pERK1/2 (Thr202/Tyr204) [9]): 0.16 mg/L
TTP 2× (time to tumor progression to twice initial tumor volume) ([4]; MEHD7945A 25 mg/kg): 39.5 days
TGI [4, 12]: 107%
